Tests used:
Type in all cases: biochemical
PAK1 = PAK1 (Homo sapiens, UniProt Q13153); experiment: In vitro kinase assay, PAK1 (Caliper EZ Reader conversion); set-up: purchased Carna Biosciences
Method: (§1) The effect of the compounds on the activity of SRC and PAK1 kinase were assessed. SRC and PAK1 kinase enzymes were obtained from Carna Biosciences.
(§2) Test compounds were dissolved in 100% DMSO to prepare a 20 mM stock. Compounds were stored in −20° C. and protected from light. A 100×solution of the compounds were prepared, from which 4-fold serial dilutions was made to achieve a total of 6 concentrations. Saracatinib was used as a positive control for the SRC assay, and FRAX597 was used as a positive control for the PAK1 assay. For the positive controls, a 3-fold serial dilution was made to achieve a total of 10 concentrations. 10 μL 1× Kinase buffer was used as the negative control.
(§3) First, 250 nL of the compounds at each dilution were transferred into wells of a 384-well plate. The PAK1 and SRC kinases were diluted to a 2.5×final concentration with 1×Kinase buffer. Then, 10 μL of enzyme mix was added to the 384-well plate, and the enzymes and compounds were pre-incubated at room temperature for 10 minutes. […] Then, 15 μL of substrate mix was added to a 384-well plate and reacted at room temperature for 30 min and 60 min. The reaction was stopped by adding 30 μL of the stop buffer, and the conversion rate was read using a Caliper EZ Reader.
(§4) Percent inhibition is calculated according to the following equation: […]
(§5) wherein “Conversion %_sample” is the conversion percentage value of the sample; “Conversion %_min” is the average conversion percentage value of the negative control; and “Conversion %_max” is the average conversion percentage value of the positive control.
(§6) The dose-response curve was fitted using GraphPad Prism software (version 5, […]), and the IC50 values for each compounds were calculated by log(inhibitor) vs. response using a variable slope program with the following formula:
(§7) Y=Bottom+(Top-Bottom)/(1+10^((Log IC50−X)*HillSlope))

SRC = target: T1, SRC (Homo sapiens, UniProt P12931); experiment: In vitro kinase assay, SRC (Caliper EZ Reader conversion); details: read-out: SRC IC50
T1 construct: purchased Carna Biosciences
Method: as §1
as §2, with “A 100×solution of the compounds were prepared, from which 4-fold serial dilutions was made to achieve a total of 6 concentrations.” left out
as §3, with “The PAK1 and SRC kinases were diluted to a 2.5×final concentration with 1×Kinase buffer.” left out
as §4, §5, §6, §7

HPK1 (MAP4K1) = HPK1 (MAP4K1) (Homo sapiens, UniProt Q92918); experiment: HPK1 (MAP4K1) kinase Lantha screen assay
In short: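 Recombinant MAP4K1 preincubated 10 min with compound (6-point dilution, duplicates) in 50 mM HEPES pH 7.5, 10 mM MgCl2, then reacted with Fluorescein-PKC substrate and ATP for 90 min at room temperature. Antibody detection solution stopped reaction; after 60 min, TR-FRET read at ex 340 nm, em 520/495 nm.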

Sequence of PAK1 (Q13153 whole entry): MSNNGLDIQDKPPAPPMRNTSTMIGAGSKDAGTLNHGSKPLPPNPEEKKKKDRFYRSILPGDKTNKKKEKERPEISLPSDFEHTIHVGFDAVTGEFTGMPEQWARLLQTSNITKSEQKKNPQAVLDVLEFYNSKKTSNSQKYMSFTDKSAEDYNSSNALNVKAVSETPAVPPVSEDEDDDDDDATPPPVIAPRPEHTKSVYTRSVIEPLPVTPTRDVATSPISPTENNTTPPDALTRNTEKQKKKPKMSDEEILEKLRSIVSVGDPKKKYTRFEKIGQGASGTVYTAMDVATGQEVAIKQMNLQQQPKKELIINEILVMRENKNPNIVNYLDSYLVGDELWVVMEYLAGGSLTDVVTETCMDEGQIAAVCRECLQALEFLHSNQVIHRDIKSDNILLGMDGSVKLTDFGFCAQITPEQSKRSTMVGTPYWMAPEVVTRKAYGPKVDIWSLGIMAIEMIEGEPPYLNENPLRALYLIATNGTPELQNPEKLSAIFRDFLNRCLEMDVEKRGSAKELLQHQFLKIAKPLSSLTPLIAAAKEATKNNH
T1 sequence (P12931 whole entry): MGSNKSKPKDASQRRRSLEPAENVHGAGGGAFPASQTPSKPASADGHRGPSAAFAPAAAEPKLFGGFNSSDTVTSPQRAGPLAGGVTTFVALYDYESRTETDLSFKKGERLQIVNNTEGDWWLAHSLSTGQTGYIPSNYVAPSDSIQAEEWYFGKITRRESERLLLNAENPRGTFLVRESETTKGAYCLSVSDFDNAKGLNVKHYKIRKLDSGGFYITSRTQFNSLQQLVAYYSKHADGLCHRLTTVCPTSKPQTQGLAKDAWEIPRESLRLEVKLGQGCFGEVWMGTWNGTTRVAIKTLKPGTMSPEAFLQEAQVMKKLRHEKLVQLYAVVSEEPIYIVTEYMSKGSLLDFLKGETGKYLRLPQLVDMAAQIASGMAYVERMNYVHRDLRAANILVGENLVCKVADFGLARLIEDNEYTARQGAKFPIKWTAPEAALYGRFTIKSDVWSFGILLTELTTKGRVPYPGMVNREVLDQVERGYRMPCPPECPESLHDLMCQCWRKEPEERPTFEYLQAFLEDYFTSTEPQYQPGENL
Sequence of HPK1 (MAP4K1) (Q92918 whole entry, species assumed): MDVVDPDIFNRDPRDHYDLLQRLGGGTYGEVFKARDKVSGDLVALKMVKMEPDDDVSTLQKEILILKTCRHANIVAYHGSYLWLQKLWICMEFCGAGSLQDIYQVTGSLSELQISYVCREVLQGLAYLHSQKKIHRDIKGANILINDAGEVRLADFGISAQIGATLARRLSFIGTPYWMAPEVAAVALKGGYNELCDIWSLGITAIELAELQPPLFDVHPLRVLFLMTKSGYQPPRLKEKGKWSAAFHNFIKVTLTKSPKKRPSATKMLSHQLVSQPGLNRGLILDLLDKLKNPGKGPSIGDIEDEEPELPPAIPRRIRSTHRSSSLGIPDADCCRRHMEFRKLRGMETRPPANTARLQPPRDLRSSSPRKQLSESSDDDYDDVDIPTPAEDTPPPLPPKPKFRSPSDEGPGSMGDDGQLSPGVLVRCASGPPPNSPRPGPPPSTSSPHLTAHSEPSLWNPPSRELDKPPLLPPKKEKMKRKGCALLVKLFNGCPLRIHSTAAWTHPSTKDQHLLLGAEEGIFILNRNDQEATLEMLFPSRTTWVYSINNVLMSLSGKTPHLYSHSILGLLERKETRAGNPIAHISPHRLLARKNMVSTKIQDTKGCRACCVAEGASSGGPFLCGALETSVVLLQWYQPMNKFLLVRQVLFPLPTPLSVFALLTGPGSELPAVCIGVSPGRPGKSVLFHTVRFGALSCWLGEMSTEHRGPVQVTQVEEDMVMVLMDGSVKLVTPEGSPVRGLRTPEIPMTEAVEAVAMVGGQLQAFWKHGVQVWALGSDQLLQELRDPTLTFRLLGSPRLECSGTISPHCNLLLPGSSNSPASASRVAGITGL

Structure (SMILES): Fc1cc(N2CCNCC2)ccc1Nc1ncc2c(n1)N1CCN=C1C(c1ccncc1)=C2 [Compound 34, N-(2-fluoro-4-(piperazin-1-yl)phenyl)-6-(pyridin-4-yl)-8,9-dihydroimidazo[1′,2′:1,6]pyrido[2,3-d]pyrimidin-2-amine]
- IC50 (PAK1): > 10 µM

Structure (SMILES): Fc1cc(N2CCNCC2)ccc1Nc1ncc2c(n1)N1CCN=C1C(c1ccccc1Cl)=C2 [Compound 12, 6-(2-chlorophenyl)-N-(2-fluoro-4-(piperazin-1-yl)phenyl)-8,9-dihydroimidazo[1′,2′:1,6]pyrido[2,3-d]pyrimidin-2-amine]
- IC50 (PAK1): 0.1 to 10 µM
- IC50 (SRC): < 0.1 µM

Structure (SMILES): Fc1cc(N2CCNCC2)ccc1Nc1ncc2c(n1)N1CCN=C1C=C2 [Compound 10, N-(2-fluoro-4-(piperazin-1-yl)phenyl)-8,9-dihydroimidazo[1′,2′:1,6]pyrido[2,3-d]pyrimidin-2-amine]
- IC50 (SRC): > 10 µM

Structure (SMILES): C1=C(c2ccccc2)C2=NCCCN2c2nc(Nc3ccncc3)ncc21 [Compound 53, 6-phenyl-N-(pyridin-4-yl)-9,10-dihydro-8H-pyrido[1,6-a:2,3-d′]dipyrimidin-2-amine]
- IC50 (SRC): > 10 µM

Structure (SMILES): Clc1cccc(Cl)c1C1=Cc2cnc(N3CCN(c4ccncc4)CC3)nc2N2CCN=C12 [Compound 51, 6-(2,6-dichlorophenyl)-2-(4-(pyridin-4-yl)piperazin-1-yl)-8,9-dihydroimidazo[1′,2′:1,6]pyrido[2,3-d]pyrimidine]
- IC50 (SRC): 0.1 to 10 µM

Structure (SMILES): COc1nc(N2CCNCC2)ccc1Nc1ncc2c(n1)N1CCN=C1C(c1ccc(C)cc1)=C2 [Compound 38, N-(2-methoxy-6-(piperazin-1-yl)pyridin-3-yl)-6-(p-tolyl)-8,9-dihydroimidazo[1′,2′:1,6]pyrido[2,3-d]pyrimidin-2-amine]
- IC50 (PAK1): > 10 µM

Structure (SMILES): CN1CCN(c2ccc(Nc3ncc4c(n3)N3CCN=C3C(c3ccc(Cl)cc3Cl)=C4)c(F)c2)CC1 [Compound 8, 6-(2,4-dichlorophenyl)-N-(2-fluoro-4-(4-methylpiperazin-1-yl)phenyl)-8,9-dihydroimidazo[1′,2′:1,6]pyrido[2,3-d]pyrimidin-2-amine]
- IC50 (SRC): < 0.1 µM

Structure (SMILES): Oc1ccncc1Nc1ncc2c(n1)N1CCCN=C1C(c1ccccc1Cl)=C2 [Compound 67, 3-((6-(2-chlorophenyl)-9,10-dihydro-8H-pyrido[1,6-a:2,3-d′]dipyrimidin-2-yl)amino)pyridin-4-ol]
- IC50 (SRC): > 10 µM

Structure (SMILES): COc1nc(N2CCNCC2)ccc1Nc1ncc2c(n1)N1CCN=C1C(c1ccccc1)=C2 [Compound 37, N-(2-methoxy-6-(piperazin-1-yl)pyridin-3-yl)-6-phenyl-8,9-dihydroimidazo[1′,2′:1,6]pyrido[2,3-d]pyrimidin-2-amine]
- IC50 (PAK1): > 10 µM

Structure (SMILES): Fc1cc(N2CCNCC2)ccc1Nc1ncc2c(n1)N1CCN=C1C(c1cscn1)=C2 [Compound 33, N-(2-fluoro-4-(piperazin-1-yl)phenyl)-6-(thiazol-4-yl)-8,9-dihydroimidazo[1′,2′:1,6]pyrido[2,3-d]pyrimidin-2-amine]
- IC50 (PAK1): 0.1 to 10 µM

Structure (SMILES): Cc1ccccc1C1=Cc2cnc(Nc3ccc(N4CCNCC4)cc3F)nc2N2CCN=C12 [Compound 30, N-(2-fluoro-4-(piperazin-1-yl)phenyl)-6-(o-tolyl)-8,9-dihydroimidazo[1′,2′:1,6]pyrido[2,3-d]pyrimidin-2-amine]
- IC50 (PAK1): > 10 µM

Structure (SMILES): CN1CCN(c2ccc(Nc3ncc4c(n3)N3CCN=C3C(c3ccc(Cl)cc3Cl)=C4)cc2F)CC1 [Compound 2, 6-(2,4-dichlorophenyl)-N-(3-fluoro-4-(4-methylpiperazin-1-yl)phenyl)-8,9-dihydroimidazo[1′,2′:1,6]pyrido[2,3-d]pyrimidin-2-amine]
- IC50 (PAK1): < 0.1 µM

Structure (SMILES): Fc1ccccc1Nc1ncc2c(n1)N1CCCN=C1C(c1ccccc1)=C2 [Compound 56, N-(2-fluorophenyl)-6-phenyl-9,10-dihydro-8H-pyrido[1,6-a:2,3-d′]dipyrimidin-2-amine]
- IC50 (SRC): > 10 µM

Structure (SMILES): CCNc1ncc2c(n1)N1CCCN=C1C(c1c(C)ccc3[nH]ncc13)=C2 [Compound 66, N-ethyl-6-(5-methyl-1H-indazol-4-yl)-9,10-dihydro-8H-pyrido[1,6-a:2,3-d′]dipyrimidin-2-amine]
- IC50 (SRC): 0.1 to 10 µM

Structure (SMILES): COc1nc(N2CCNCC2)ccc1Nc1ncc2c(n1)N1CCN=C1C(c1ccncc1)=C2 [Compound 41, N-(2-methoxy-6-(piperazin-1-yl)pyridin-3-yl)-6-(pyridin-4-yl)-8,9-dihydroimidazo[1′,2′:1,6]pyrido[2,3-d]pyrimidin-2-amine]
- IC50 (SRC): > 10 µM

Structure (SMILES): Clc1ccccc1C1=Cc2cnc(Nc3ccc(N4CCOCC4)cc3)nc2N2CCN=C12 [Compound 89, 6-(2-chlorophenyl)-N-(4-morpholinophenyl)-8,9-dihydroimidazo[1′,2′:1,6]pyrido[2,3-d]pyrimidin-2-amine]
- IC50 (PAK1): 0.1 to 10 µM

Structure (SMILES): CCN1CCN(c2ccc(Nc3ncc4c(n3)N3CCN=C3C(c3ccc(Cl)cc3Cl)=C4)c(F)c2)CC1 [Compound 9, 6-(2,4-dichlorophenyl)-N-(4-(4-ethylpiperazin-1-yl)-2-fluorophenyl)-8,9-dihydroimidazo[1′,2′:1,6]pyrido[2,3-d]pyrimidin-2-amine]
- IC50 (SRC): < 0.1 µM

Structure (SMILES): Cc1ccc(NC(=O)c2cc(C(F)(F)F)ccn2)cc1C1=Cc2cnc(N)nc2N2CCCN=C12 [Compound 76, N-(3-(2-amino-9,10-dihydro-8H-pyrido[1,6-a:2,3-d′]dipyrimidin-6-yl)-4-methylphenyl)-4-(trifluoromethyl)picolinamide]
- IC50 (SRC): 0.1 to 10 µM

Structure (SMILES): Fc1cnccc1Nc1ncc2c(n1)N1CCCN=C1C(c1ccccc1)=C2 [Compound 55, N-(3-fluoropyridin-4-yl)-6-phenyl-9,10-dihydro-8H-pyrido[1,6-a:2,3-d′]dipyrimidin-2-amine]
- IC50 (SRC): > 10 µM

Structure (SMILES): Fc1cc(N2CCNCC2)ccc1Nc1ncc2c(n1)N1CCN=C1C(c1ccccn1)=C2 [Compound 32, N-(2-fluoro-4-(piperazin-1-yl)phenyl)-6-(pyridin-2-yl)-8,9-dihydroimidazo[1′,2′:1,6]pyrido[2,3-d]pyrimidin-2-amine]
- IC50 (PAK1): > 10 µM

Structure (SMILES): Cc1cc(F)c(NC(=O)C2(C(=O)Nc3ccc(F)cc3)CC2)cc1C1=Cc2cnc(NC3COC3)nc2N2CCN=C12 [Compound 344, N-(2-fluoro-4-methyl-5-(2-(oxetan-3-ylamino)-8,9-dihydroimidazo[1′,2′:1,6]pyrido[2,3-d]pyrimidin-6-yl)phenyl)-N-(4-fluorophenyl)cyclopropane-1,1-dicarboxamide]
- IC50 (HPK1 (MAP4K1)): > 10 µM

Structure (SMILES): Cc1cnccc1Nc1ncc2c(n1)N1CCN=C1C(c1cc(NC(=O)c3cc(C(F)(F)F)ccn3)ccc1C)=C2 [Compound 213, N-(4-methyl-3-(2-((3-methylpyridin-4-yl)amino)-8,9-dihydroimidazo[1′,2′:1,6]pyrido[2,3-d]pyrimidin-6-yl)phenyl)-4-(trifluoromethyl)picolinamide]
- IC50 (HPK1 (MAP4K1)): < 0.1 µM

Structure (SMILES): COc1ccccc1Nc1ncc2c(n1)N1CCCN=C1C(c1ccccc1Cl)=C2 [Compound 61, 6-(2-chlorophenyl)-N-(2-methoxyphenyl)-9,10-dihydro-8H-pyrido[1,6-a:2,3-d′]dipyrimidin-2-amine]
- IC50 (SRC): 0.1 to 10 µM

Structure (SMILES): CNc1ncc2c(n1)N1CCN=C1C(c1cc(NC(=O)c3cccc(C(C)(C)O)c3)ccc1C)=C2 [Compound 170, 3-(2-hydroxypropan-2-yl)-N-(4-methyl-3-(2-(methylamino)-8,9-dihydroimidazo[1′,2′:1,6]pyrido[2,3-d]pyrimidin-6-yl)phenyl)benzamide]
- IC50 (HPK1 (MAP4K1)): < 0.1 µM

Structure (SMILES): COc1cccc(Nc2ncc3c(n2)N2CCCN=C2C(c2ccccc2Cl)=C3)c1 [Compound 60, 6-(2-chlorophenyl)-N-(3-methoxyphenyl)-9,10-dihydro-8H-pyrido[1,6-a:2,3-d′]dipyrimidin-2-amine]
- IC50 (SRC): 0.1 to 10 µM

Structure (SMILES): Clc1ccccc1C1=Cc2cnc(Nc3ccncc3)nc2N2CCCN=C12 [Compound 54, 6-(2-chlorophenyl)-N-(pyridin-4-yl)-9,10-dihydro-8H-pyrido[1,6-a:2,3-d′]dipyrimidin-2-amine]
- IC50 (SRC): > 10 µM

Source: patent US20230303570A1, “KINASE INHIBITORS AND USES THEREOF” (ABM Therapeutics Corporation, priority 2020, published 2023)
